Data published in article PMC10221314 (Pharmaceuticals, 2023).
“Also recorded” adds a separate entry of the source.

Assays:
[1] = target: T1, FXR (Homo sapiens, UniProt Q96RI1); assay: NR selectivity one-hybrid assay in HEK-293T cells (FXR); type: cell-based; conditions: FXR agonist CDCA (50 μM)
T1 construct: a fusion plasmid of Gal4 DBD-NR-LBD, which included PPARα, PPARβ, PPARγ, RXRα, RXRβ, RXRγ, LXRα, LXRβ, GPBAR, PXR, and FXR; expressed in transfected cells; host or cells: HEK-293T
T1 sequence (Q96RI1 262-486 limits assumed): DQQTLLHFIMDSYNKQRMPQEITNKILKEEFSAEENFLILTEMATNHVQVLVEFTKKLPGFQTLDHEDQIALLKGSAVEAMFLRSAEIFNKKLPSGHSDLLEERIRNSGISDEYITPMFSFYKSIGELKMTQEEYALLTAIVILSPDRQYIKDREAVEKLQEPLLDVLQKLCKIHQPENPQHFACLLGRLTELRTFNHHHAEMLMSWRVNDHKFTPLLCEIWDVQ
Procedure: (§1) To assess the compound’s specificity, the mammalian one-hybrid assay was conducted. In this assay, HEK-293T cells were co-transfected with a fusion plasmid of Gal4 DBD-NR LBD (comprising RXRα, RXRβ, RXRγ, PPARα, PPARβ, PPARγ, LXRα, LXRβ, GPBAR, and PXR) and the UAS-TK-Luc reporter, followed by treatment with various concentrations of the compound. The positive control consisted of the corresponding nuclear receptor agonist, and the concentration used in the experiment was set to the EC50 of the agonist.
(§2) Figure 3 Compound 10b selectively antagonized FXR. The impact of compound 10b on various NRs was evaluated using a […] one-hybrid assay in HEK-293T cells. The cells were transiently co-transfected with a fusion plasmid of Gal4 DBD-NR-LBD, which included PPARα, PPARβ, PPARγ, RXRα, RXRβ, RXRγ, LXRα, LXRβ, GPBAR, PXR, and FXR, in combination with the UAS-TK-Luc reporter. […] The values are expressed as the means ± SE of three independent experiments. *: p < 0.05 vs. RA (relative agonist).

[2] = Stability of compound 10b in mouse plasma at 37 °C (HPLC); type: in vitro ADME; set-up: recovery at 6 h / recovery at 48 h: dose or concentration left out as unconfirmed; conditions: for Mass of 10b extracted from mouse plasma: theoretical mass 38.5 μg
Procedure: 3. Stability test of compound 10b
To preliminarily determine the stability of compound 10b in a biological environment, an in vitro experimental verification method was employed. The trace compound was dissolved in mouse plasma to simulate the biological environment.
Samples were taken at different time intervals at 37 °C, and the content of the compound was determined by HPLC C18 analytical column. The peak area of the absorption at 220 nm was utilized for content calculation.
The standard curve shown in Fig. S1 can be plotted using the peak area and the mass of compound 10b in the corresponding volume of the solution. The relationship is y = 23.253x+ 100.67 (R2 = 0.9994), which meets linearity requirements and can be used for subsequent operations.
Fig. S1. The relationship curve between the absorption peak area and mass of compound 10b at 220 […]
Subsequently, a mouse with a body weight of 20 g and blood volume of 1 mL was calculated based on the subsequent in vivo experiment’s dosage (100 mg·Kg-1).
Assuming 100% absorption, the converted plasma drug concentration is 2 mg·mL -1.
Based on the calculation, 0.5 mg of 10b was added to […] of mouse plasma to prepare a mixed solution. The plasma was then processed after 1h, 6h, 12 h, 24 h, and 48 h, respectively. The compound content in the sample was compared to the initial content with UV absorption and retention time (t = 6.5 min). […]
significant decrease in the content of 10b was observed between 0 to 48 hours, […]

[3] = tested on: RXRα, RXRβ, RXRγ, LXRα, LXRβ, PXR, PPARα, PPARβ, PPARγ, and GPBAR; assay: NR selectivity one-hybrid assay in HEK-293T cells (panel of metabolic NRs); type: cell-based
Procedure: as §1, §2

[4] = tested on: LX-2 cells; assay: mRNA expression of liver fibrosis marker genes in TGFβ1-induced LX-2 cells; type: cell-based; conditions: 20 μM, induced by 2 ng·mL^−1 TGFβ1, 24 h
Procedure: Cells and liver tissue samples were subjected to RNA extraction and purification, followed by reverse transcription of equal amounts of total RNA into […] using a Transcriptor First Strand cDNA Synthesis Kit (Roche). The relative expression levels of the target gene were determined using TaqMan probe/primers with an ABI Q3 quantitative real-time PCR system, while GAPDH/Gapdh was utilized as an internal control for mRNA expression. The fold change in the expression of the target mRNA was calculated using Equation 2^−ΔΔCt.
(§3) (A–E) The LX-2 cells underwent a 24 h treatment of 2 ng·mL^−1 TGFβ1, with or without varying concentrations of candidate compounds, following FBS starvation. […] GAPDH/GAPDH was used as the loading control. The mean ± SD values were obtained from three independent assays. […] ANOVA was followed by Tukey’s test for statistical analysis.

[5] = tested on: LX-2 cells; assay: Western blot of liver-fibrosis-associated proteins in LX-2 cells and HSC-T6 cells; type: cell-based; conditions: 20 μM
Procedure: The total protein concentration in cell and liver tissue lysates was determined using a BCA kit (Beyotime Biotechnology, P0009). Following immune precipitation with appropriate antibodies overnight at 4 °C and incubation with Protein A/G Plus-agarose (Santa Cruz Biotechnology, sc-2003), immunocomplexes or lysates were subjected to SDS-PAGE gel electrophoresis and transferred onto PVDF membranes. Target proteins were detected using specific primary antibodies and an appropriate secondary antibody, with electrochemiluminescence carried out according to the manufacturer’s instructions with a Tanon 5200 imaging system (Shanghai, China). The internal control utilized was GADPH.
as §3

[6] = target: T2, PPARα (Homo sapiens, UniProt Q07869); assay: NR selectivity one-hybrid assay in HEK-293T cells (PPARα); type: cell-based; conditions: activated by fenofibrate
T2 construct: a fusion plasmid of Gal4 DBD-NR LBD (comprising RXRα, RXRβ, RXRγ, PPARα, PPARβ, PPARγ, LXRα, LXRβ, GPBAR, and PXR); expressed in transfected cells; host or cells: HEK-293T
T2 sequence (Q07869 239-466 limits assumed): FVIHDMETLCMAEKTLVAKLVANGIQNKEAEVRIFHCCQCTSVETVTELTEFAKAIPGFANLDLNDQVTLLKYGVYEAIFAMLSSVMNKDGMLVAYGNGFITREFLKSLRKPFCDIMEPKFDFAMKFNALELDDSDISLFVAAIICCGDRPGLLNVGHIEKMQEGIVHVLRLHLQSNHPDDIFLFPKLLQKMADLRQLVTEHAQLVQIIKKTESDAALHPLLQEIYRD
Procedure: as §1, §2

## CC1(C)CCC2(C(=O)O)CCC3(C)C(C(OC(=O)CCC(NC(=O)OC(C)(C)C)C(=O)OC(C)(C)C)CC4C5(C)CCC(O)C(C)(C)C5CCC43C)C2C1 [Compound 10b, 3β-hydroxy-12β-(4′-((tert-butoxycarbonyl)amide)-5′-(tert-butoxy)-L-glutamte)oxy-13H-olean-28-oic acid]
[1]
  antagonistic effects against FXR: > 90%
[2]; 0 h, read-out: Recovery rate
  recovery at 0 h, 0.0025 mg/mL: 68%
[2]; 0 h
  Mass of 10b extracted from mouse plasma: 26.2 µg
[2]; 0 to 48 h
  content of 10b in mouse plasma (stability): existed stably in mouse plasma; also recorded: remained almost unchanged
[2]; 1 h, read-out: Recovery rate
  recovery at 1 h, 0.0025 mg/mL: 70.9%
[2]; 1 h
  Mass of 10b extracted from mouse plasma: 27.3 µg
[2]; 6 h, read-out: Recovery rate
  recovery at 6 h: 75.8%
[2]; 6 h
  Mass of 10b extracted from mouse plasma: 29.2 µg
[2]; 12 h, read-out: Recovery rate
  recovery at 12 h, 0.0025 mg/mL: 63.4%
[2]; 12 h
  Mass of 10b extracted from mouse plasma: 24.4 µg
[2]; 24 h, read-out: Recovery rate
  recovery at 24 h, 0.0025 mg/mL: 68.5%
[2]; 24 h
  Mass of 10b extracted from mouse plasma: 26.4 µg
[2]; 48 h, read-out: Recovery rate
  recovery at 48 h: 76.6%
[2]; 48 h
  Mass of 10b extracted from mouse plasma: 29.5 µg
[3]
  agonistic effect for tested NRs or GPBAR: no agonistic effect
[4]
  mRNA expression of ACTA2: significantly decrease
  mRNA expression of COL1A1: significantly decrease
  mRNA expression of CTGF: significantly decrease
  mRNA expression of ITGAV: significantly decrease
  mRNA expression of TGFb1: significantly decrease
[5]
  content of protein TGFβ1: reduced
  content of protein TIMP1: reduced
  content of protein a-SMA: reduced
[6]
  antagonistic effects against PPARα: 10–20%
